Values after ≈ are worked out from the molar mass of the structure shown.

What all share (format): functional
For one assay, the system named is Morganella morganii. The assay can be described thus: Minimum inhibitory concentration (MIC) preventing growth of Morganella morganii.
For another assay, the system named is Klebsiella pneumoniae. The assay can be described thus: Minimum inhibitory concentration (MIC)preventing growth of Klebsiella pneumoniae.
The test system of a further assay is Enterobacter cloacae. As to the kind of experiment: Minimum inhibitory concentration (MIC)preventing growth of Enterobacter cloacae.
The next assay concerns Proteus vulgaris. The assay can be described thus: Minimum inhibitory concentration (MIC) preventing growth of Proteus vulgaris.
The test system of assay [1] is Staphylococcus epidermidis. The assay can be described thus: Minimum inhibitory concentration (MIC) preventing growth of Staphylococcus epidermidis.
In a further assay the test system is Bacillus subtilis. As to the kind of experiment: Minimum inhibitory concentration (MIC) preventing growth of Bacillus subtilis.
The next assay concerns Bacillus cereus. As to the kind of experiment: Minimum inhibitory concentration (MIC) preventing growth of Bacillus cereus.
A further assay relates to Escherichia coli. The assay can be described thus: Minimum inhibitory concentration (MIC)preventing growth of Escherichia coli.
The next assay has as its system Pseudomonas aeruginosa. The assay can be described thus: Minimum inhibitory concentration (MIC)preventing growth of Pseudomonas aeruginosa.
For another assay, the system named is Enterococcus faecalis. The assay can be described thus: Minimum inhibitory concentration (MIC) preventing growth of Streptococcus faecalis ATCC 10541.
The test system of another assay is Staphylococcus aureus. As to the kind of experiment: Minimum inhibitory concentration (MIC) preventing growth of […].

Consider `CC1(N)CN(c2c(F)c(N)c3c(=O)c(C(=O)O)cn(-c4ccc(F)cc4F)c3c2F)C1`, for which the minimal inhibitory concentration (MIC) against Morganella morganii was 0.12 µg/mL (≈ 0.275 µM); against Klebsiella pneumoniae, 0.25 µg/mL (≈ 0.573 µM); with Enterobacter cloacae, 0.06 µg/mL (≈ 0.137 µM); against Proteus vulgaris, 0.25 µg/mL (≈ 0.573 µM); in assay [1] it was 0.06 µg/mL (≈ 0.137 µM); with Bacillus subtilis it was 0.06 µg/mL (≈ 0.137 µM). Besides, the minimal inhibitory concentration (MIC) in the assay with Bacillus cereus amounted to 0.06 µg/mL (≈ 0.137 µM); in the assay on Escherichia coli, 0.12 µg/mL (≈ 0.275 µM); with Pseudomonas aeruginosa, 0.5 µg/mL (≈ 1.15 µM); with Enterococcus faecalis it was 0.03 µg/mL (≈ 0.0687 µM); with Staphylococcus aureus it was 0.06 µg/mL (≈ 0.137 µM).

Regarding `CC1(N)CN(c2c(F)cc3c(=O)c(C(=O)O)cn(CCF)c3c2F)C1`, the MIC against Morganella morganii came to 1 µg/mL (≈ 2.81 µM); in the assay with Klebsiella pneumoniae it was 1 µg/mL (≈ 2.81 µM); in the assay on Enterobacter cloacae, 1 µg/mL (≈ 2.81 µM); against Proteus vulgaris, 1 µg/mL (≈ 2.81 µM); in [1], 1 µg/mL (≈ 2.81 µM); in the assay on Bacillus subtilis, 0.25 µg/mL (≈ 0.704 µM). Also, the minimal inhibitory concentration (MIC) against Bacillus cereus amounted to 1 µg/mL (≈ 2.81 µM); against Escherichia coli, 1 µg/mL (≈ 2.81 µM); with Pseudomonas aeruginosa it was 4 µg/mL (≈ 11.3 µM); in the assay with Enterococcus faecalis, 4 µg/mL (≈ 11.3 µM); against Staphylococcus aureus, 1 µg/mL (≈ 2.81 µM).

For `CC1(N)CN(c2cc3c(cc2F)c(=O)c(C(=O)O)cn3-c2ccc(F)cc2F)C1`, the MIC in the assay on Morganella morganii is 0.25 µg/mL (≈ 0.62 µM); against Klebsiella pneumoniae it was 0.12 µg/mL (≈ 0.298 µM); against Enterobacter cloacae it was 0.25 µg/mL (≈ 0.62 µM); against Proteus vulgaris it was 0.25 µg/mL (≈ 0.62 µM); in assay [1] it was 0.25 µg/mL (≈ 0.62 µM); in the assay on Bacillus subtilis, 0.12 µg/mL (≈ 0.298 µM). Moreover, the MIC in the assay with Bacillus cereus was found to be 0.25 µg/mL (≈ 0.62 µM); against Escherichia coli, 0.12 µg/mL (≈ 0.298 µM); in the assay on Pseudomonas aeruginosa it was 2 µg/mL (≈ 4.96 µM); in the assay with Enterococcus faecalis it was 0.12 µg/mL (≈ 0.298 µM); against Staphylococcus aureus, 0.25 µg/mL (≈ 0.62 µM).

Take `CCn1cc(C(=O)O)c(=O)c2c(N)c(F)c(N3CC(N)C3)c(F)c21`: the MIC against Morganella morganii worked out at 0.12 µg/mL (≈ 0.355 µM); with Klebsiella pneumoniae, 0.25 µg/mL (≈ 0.739 µM); in the assay on Enterobacter cloacae, 0.12 µg/mL (≈ 0.355 µM); in the assay on Proteus vulgaris, 0.5 µg/mL (≈ 1.48 µM); in assay [1], 0.5 µg/mL (≈ 1.48 µM); in the assay on Bacillus subtilis it was 2 µg/mL (≈ 5.91 µM). For the same compound, the MIC with Bacillus cereus stood at 0.25 µg/mL (≈ 0.739 µM); against Escherichia coli, 0.12 µg/mL (≈ 0.355 µM); against Pseudomonas aeruginosa it was 1 µg/mL (≈ 2.96 µM); in the assay with Enterococcus faecalis it was 0.25 µg/mL (≈ 0.739 µM); against Staphylococcus aureus, 0.5 µg/mL (≈ 1.48 µM).

`Nc1c(F)c(N2CC(N)C2)c(F)c2c1c(=O)c(C(=O)O)cn2-c1ccc(F)cc1F`: the MIC with Morganella morganii is 0.03 µg/mL (≈ 0.071 µM); against Klebsiella pneumoniae it was 0.06 µg/mL (≈ 0.142 µM); against Enterobacter cloacae it was 0.015 µg/mL (≈ 0.0355 µM); against Proteus vulgaris, 0.12 µg/mL (≈ 0.284 µM); in [1], 0.06 µg/mL (≈ 0.142 µM); in the assay on Bacillus subtilis, 0.015 µg/mL (≈ 0.0355 µM). Besides, the MIC in the assay on Bacillus cereus turned out to be 0.06 µg/mL (≈ 0.142 µM); in the assay on Escherichia coli it was 0.015 µg/mL (≈ 0.0355 µM); against Pseudomonas aeruginosa it was 0.12 µg/mL (≈ 0.284 µM); with Enterococcus faecalis, 0.06 µg/mL (≈ 0.142 µM); against Staphylococcus aureus, 0.03 µg/mL (≈ 0.071 µM).

Consider `O=C(O)c1cn(C2CC2)c2cc(N3CC(O)C3)c(F)cc2c1=O`, for which the MIC in the assay on Morganella morganii turned out to be 0.25 µg/mL (≈ 0.785 µM); in the assay on Klebsiella pneumoniae, 0.12 µg/mL (≈ 0.377 µM); in the assay with Enterobacter cloacae, 0.12 µg/mL (≈ 0.377 µM); against Proteus vulgaris it was 0.12 µg/mL (≈ 0.377 µM); in [1], 0.12 µg/mL (≈ 0.377 µM); against Bacillus subtilis it was 0.015 µg/mL (≈ 0.0471 µM). The MIC is 0.12 µg/mL (≈ 0.377 µM) against Bacillus cereus; 0.12 µg/mL (≈ 0.377 µM) with Escherichia coli; 2 µg/mL (≈ 6.28 µM) in the assay on Pseudomonas aeruginosa; 1 µg/mL (≈ 3.14 µM) against Enterococcus faecalis; 0.12 µg/mL (≈ 0.377 µM) with Staphylococcus aureus.

In the case of `CC1(N)CN(c2cc3c(cc2F)c(=O)c(C(=O)O)cn3-c2ccc(F)cc2)C1`, the MIC against Morganella morganii stood at 0.25 µg/mL (≈ 0.649 µM); against Klebsiella pneumoniae it was 0.12 µg/mL (≈ 0.311 µM); against Enterobacter cloacae it was 0.12 µg/mL (≈ 0.311 µM); against Proteus vulgaris it was 0.25 µg/mL (≈ 0.649 µM); in assay [1], 0.12 µg/mL (≈ 0.311 µM); against Bacillus subtilis, 0.06 µg/mL (≈ 0.156 µM). Besides, the MIC came to 0.12 µg/mL (≈ 0.311 µM) in the assay on Bacillus cereus; 0.12 µg/mL (≈ 0.311 µM) in the assay on Escherichia coli; 2 µg/mL (≈ 5.19 µM) against Pseudomonas aeruginosa; 2 µg/mL (≈ 5.19 µM) against Enterococcus faecalis; 0.12 µg/mL (≈ 0.311 µM) in the assay on Staphylococcus aureus.

Turning to `NC1CN(c2cc3c(cc2F)c(=O)c2c(=O)[nH]sc2n3C2CC2)C1`, the MIC against Morganella morganii turned out to be 0.015 µg/mL (≈ 0.0433 µM); against Klebsiella pneumoniae, 0.03 µg/mL (≈ 0.0866 µM); in the assay on Enterobacter cloacae it was 0.03 µg/mL (≈ 0.0866 µM); against Proteus vulgaris it was 0.12 µg/mL (≈ 0.346 µM); in [1], 0.06 µg/mL (≈ 0.173 µM); in the assay with Bacillus subtilis, 0.03 µg/mL (≈ 0.0866 µM). In addition, the MIC is 0.06 µg/mL (≈ 0.173 µM) against Bacillus cereus; 0.007 µg/mL (≈ 0.0202 µM) in the assay with Escherichia coli; 0.25 µg/mL (≈ 0.722 µM) in the assay with Pseudomonas aeruginosa; 0.12 µg/mL (≈ 0.346 µM) in the assay on Enterococcus faecalis; 0.06 µg/mL (≈ 0.173 µM) with Staphylococcus aureus.

As to `NC(=O)C1CN(c2c(F)cc3c(=O)c(C(=O)O)cn(C4CC4)c3c2F)C1`, the MIC against Morganella morganii stood at 0.25 µg/mL (≈ 0.688 µM); in the assay with Klebsiella pneumoniae it was 0.06 µg/mL (≈ 0.165 µM); against Enterobacter cloacae, 0.25 µg/mL (≈ 0.688 µM); against Proteus vulgaris, 0.25 µg/mL (≈ 0.688 µM); in [1], 0.5 µg/mL (≈ 1.38 µM); against Bacillus subtilis it was 0.06 µg/mL (≈ 0.165 µM). Moreover, the MIC in the assay on Bacillus cereus is 0.25 µg/mL (≈ 0.688 µM); with Escherichia coli it was 0.25 µg/mL (≈ 0.688 µM); in the assay on Pseudomonas aeruginosa, 4 µg/mL (≈ 11 µM); against Enterococcus faecalis, 0.5 µg/mL (≈ 1.38 µM); against Staphylococcus aureus it was 0.25 µg/mL (≈ 0.688 µM).

In the case of `CS(=O)(=O)OC1CN(c2c(F)cc3c(=O)c(C(=O)O)cn(C4CC4)c3c2F)C1`, the MIC against Morganella morganii turned out to be 0.5 µg/mL (≈ 1.21 µM); in the assay on Klebsiella pneumoniae, 0.015 µg/mL (≈ 0.0362 µM); against Enterobacter cloacae, 0.5 µg/mL (≈ 1.21 µM); in the assay with Proteus vulgaris, 0.25 µg/mL (≈ 0.603 µM); in assay [1], 0.06 µg/mL (≈ 0.145 µM); in the assay with Bacillus subtilis it was 0.015 µg/mL (≈ 0.0362 µM). Also, the MIC in the assay on Bacillus cereus was determined as 0.12 µg/mL (≈ 0.29 µM); in the assay with Escherichia coli, 0.25 µg/mL (≈ 0.603 µM); in the assay on Pseudomonas aeruginosa, 8 µg/mL (≈ 19.3 µM); with Enterococcus faecalis, 0.5 µg/mL (≈ 1.21 µM); with Staphylococcus aureus it was 0.06 µg/mL (≈ 0.145 µM).

The values are drawn from ChEMBL document CHEMBL1126625, “7-Azetidinylquinolones as antibacterial agents. Synthesis and structure-activity relationships” (J Med Chem, 1993).
